Experimental data reported in a melting point compilation (Tetko et al.; mined from patent text by program, amines drawn as free bases though some values may be those of a salt).

SMILES	melting point
CCOC(=O)[C@H](CCSC)NC(=O)C1(Br)SC=C(Br)C1Br (stereo not given in full)	80 to 82 °C
CC(CCCI)C(=O)Nc1nnc(C(C)(C)C)s1 (stereo not given)	102 °C
Cc1cc(N)cc(C)c1C(=O)Cc1ccccc1C(F)(F)F	168 °C
COc1ccc(C)c2nc(Cl)c(C(C)C)cc12	74 to 76 °C
CCOC(=O)C1(Br)Oc2ccccc2OC1Br (stereo not given)	102 °C
CSC(=S)C1(c2ccccn2)OCCCS1 (stereo not given)	116 °C
COc1ccc2c(c1)C(=S)N(C)CC(CCCl)O2 (stereo not given)	98 to 100 °C
CC(C)(C)OC(=O)NC1CCN(CCn2c(=O)ccc3ccc(C#N)cc32)CC1	202 °C
CCn1cc(C(=O)O)c(=O)c2c1CCCC2=O	212 to 214 °C
CC1(C)Cc2c(c(N3CCOCC3)nc3sc4c(NCCCN5CCCC5=O)ncnc4c23)CO1	216 to 217 °C
O=[N+]([O-])c1ccc(-c2cc(C(F)(F)C(F)(F)C(F)(F)F)nc(-c3ccc(C(F)(F)F)cc3)n2)cc1	191 °C
CC(C)OC(=O)C1CCCN1S(=O)(=O)c1ccc(N2CCC(=O)CC2)cc1 (stereo not given)	97 to 101 °C
O=[N+]([O-])c1ccc(-c2cccc(-c3cn([C@H]4CN5CCC4CC5)nn3)c2)cn1	180 °C
N#CCc1c[nH]c2ccc(CS(=O)(=O)NCc3ccccc3C(N)=O)cc12	202 to 206 °C
CN(C)c1nc(Cl)nc(NCC(F)(F)F)n1	181 to 184 °C
CCCCCCCCCCCCNC(=O)N(C)C[C@H](O)[C@@H](O)[C@H](O)[C@H](O)CO	117 °C
COC(CNC1=Nc2ccccc2Nc2ccccc21)OC	181 to 182 °C
COC(=O)c1ccc(-c2ccc(Br)c3nsnc23)cc1	188 to 192 °C
CCCCOc1ccc(C#CC2(O)CN3CCC2CC3)cn1 (stereo not given)	149 to 151 °C
COc1ccc(CN2CCC(c3cn(Cc4ccco4)c4ccccc34)CC2)cc1C(=O)O	237 to 238 °C
Cc1ccnn1-c1c(Cl)cc(C(F)(F)F)cc1Cl	78 to 84 °C
O=C1c2ccccc2C(=O)N1CCCCCCCCCCOc1ccc(-n2ccnc2)cc1	90 to 91 °C
CCc1nc(C(=O)O)c(Cl)c(N)c1F	144 to 145 °C
O=C(Cl)N1CCC1Oc1ccc(C(F)(F)F)cc1Cl (stereo not given)	86 to 88 °C
CCOP(=O)(Cc1ccc(NC(=O)CCc2c(C)noc2-c2ccccc2)cc1)OCC	114 to 115 °C

SMILES	melting point
Oc1c(Cl)cc(-c2cnn3c(O)ncnc23)cc1Cl	> 300 °C
OCc1ccnc(Nc2ncc(-c3ccccc3)s2)c1	236 to 237 °C
CC(C)(C)OC(=O)NCc1ccccc1N	94 to 95 °C
CC(C)(C)c1ccc(NC(=O)NCc2ccc(-n3c(-c4cccnc4N)nc4cccnc43)cc2)cc1	210 to 212 °C
CSC(=S)C12CC3CC(CC(C3)C1)C2	64.5 to 66 °C
CC(CSC(=O)c1ccccc1)C(=O)N(CC(=O)O)C1Cc2ccccc2C1 (stereo not given)	113 to 115 °C
COc1ccc(S(=O)(=O)N(CC(=O)O)CC(=O)O)cc1	177 to 178 °C
CC(Nc1ccc(F)c(F)c1)C(=O)O (stereo not given)	163 °C
O=[N+]([O-])c1sc2ccc(Cl)cc2c1Br	176 to 178 °C
O=C(O)c1ccccc1-c1nnc(-c2ccc(C(F)(F)F)cc2)s1	> 300 °C
COC(=O)CCCCCCCNC(=O)C(CO)NS(=O)(=O)c1ccc(Cl)cc1 (racemic)	88 to 92 °C
Cc1cc(SC2=C(O)CC(CCc3ccncc3)(C(C)C)OC2=O)c(C(C)(C)C)cc1CO (stereo not given)	140 to 155 °C
CC1(C)CCn2c(nc(-c3ccncn3)cc2=O)N1	265 to 267 °C
COc1cc2c(cc1OC)[C@@H]1CN(C)CC[C@@H]1N=C2c1ccc(NC(C)=O)cc1 (relative stereo)	173 to 175 °C
CC(C)(C)N(NC(=O)c1ccccc1)C(=O)c1ccco1	155 to 175 °C
Cc1sc(-c2ccccc2)nc1COc1ccc(COc2nn(C)cc2CC(=O)O)cn1	140 to 141 °C
COc1cc(NC(=O)OC(C)(C)C)c(N)cc1-c1cc(F)ccc1F	144 °C
CC(=O)NC(C)Cc1ccc(C=CC(=O)O)cc1 (stereo not given)	207 to 208 °C
CC=C(NC(=O)CC(C)C)C(=O)O	172 to 174 °C
O=[N+]([O-])c1cc(NCCO)c(Cl)cc1NCCO	127 to 128 °C
Cc1cc(C(O)(C=Cc2ccc(Cl)cc2)C(F)(F)F)ccc1NC(=O)c1cccc(I)c1C(=O)NC(C)C (stereo not given)	65 to 75 °C
CS(=O)(=O)c1ccc(-c2nn3c(c2-c2ccc(F)cc2)OCCCC3)cc1	167 to 168 °C
Cc1c(C(N)=O)c2ccccc2n2c(N3CCCC3)nc(-c3noc(C4CC4)n3)c12	206 to 209 °C
COc1cc(C(=O)O)cc2c1oc1ccccc12	229 to 240 °C
CCOC(=O)C1=C(C(=O)OCC)C(c2cccc([N+](=O)[O-])c2)C(C(=O)OCC)=C(C(=O)OCC)N1	121 to 124 °C

SMILES	melting point
CCOC(=O)c1ncoc1-c1ccc([N+](=O)[O-])cc1Cl	140 to 141 °C
CNC(=O)c1cc2c(nc(C)n2C)c(O)c1CC[C@@H](O)c1ccccc1	247 to 249 °C
N#CC(N)=C(N)Sc1ccc(Cl)cc1	107 to 108 °C
CC(=O)Oc1cc(S(=O)(=O)c2ccccc2)ccc1OCc1ccccc1	107 to 111 °C
CCCCCC(=O)C=CC1=C(CCC(=O)O)C(=O)CC1O (stereo not given)	57 °C
Nc1ccc(N)c(C(=O)c2ccccc2Cl)c1	30 to 40 °C
S=C(N/N=C/c1cccnc1)Nc1ccccc1	208 to 210 °C
CC(C)CCCC(C)C1CC=C2C3=C(CCC21C)C1(C)CCC(F)CC1CC3 (stereo not given)	98.6 °C
COCc1cc(N)n2nc(SC)c(S(=O)(=O)c3ccccc3)c2n1	> 230 °C
O=C(CC(O)(c1cc(Cl)cc(Cl)c1)C(F)(F)F)c1ccc(-n2cncn2)nc1 (stereo not given)	135 to 136 °C
O=C(CCC1CCCC1)N1CCN(C(=O)c2cc(C(F)(F)F)cc(C(F)(F)F)c2)[C@H](Cc2c[nH]c3ccccc23)C1	180 to 183 °C
NS(=O)(=O)OCCOc1cccc(OCc2ccccc2)c1	107 to 109 °C
CC(C)n1cc(C#N)c(-c2ccc([N+](=O)[O-])o2)n1	181 to 182 °C
COc1cc2c(cc1OCc1ccccc1)CCCN(Cc1cc(OC)c(OC)c(OC)c1)C2	44 to 46 °C
Oc1onc(CCCc2cccc(OCc3ccccc3)c2)c1C(c1ccccc1)c1ccccc1	89 to 90.5 °C
COC(=O)CCc1cc2cc(C(F)(F)F)ccc2[nH]1	106 to 108 °C
CC(C)(C)OC(=O)N[C@@H](Cc1ccccc1Cl)C(=O)NC1CCC(Nc2cccc3c2C(=O)c2ccccc2C3=O)CC1 (stereo not given in full)	183 °C
CCOC(=O)c1[nH]cc2c1NC1=C(C(=O)CCC1)C2c1ccc(Sc2nc3cc(F)c(F)cc3[nH]2)o1 (stereo not given)	160 to 170 °C
CCOC(=O)c1nnc(Cc2ccccc2Cl)n1C	87 to 88 °C
O[C@H]1CC[C@H](Nc2nccc(-c3c[nH]c4ccccc34)n2)CC1	258 to 260 °C
CCCc1[nH]cnc1C(=O)OCC	175 to 179 °C
CCCCc1cn(-c2c(C)cccc2Cl)c(=O)n1Cc1ccc(-c2ccccc2-c2nnn[nH]2)cc1	163 to 164 °C
COc1cc(N)c(Cl)cc1C(=O)NCC1CCN(CCCCCNCc2ccc(F)cc2)CC1	66 to 68 °C
COc1cc2c(cc1C(F)(F)F)N(C(=O)Nc1ccc(Oc3cccnc3)nc1)CC2	202 to 204 °C
COC(=O)c1nc(CN(C)C)n(-c2ccc(Cl)cc2C(=O)c2ccccc2Cl)n1	131 to 134 °C

SMILES	melting point
COC(=O)C(=C(C)C)N1CC(NC(=O)COc2ccccc2)C1=O (stereo not given)	154 to 155 °C
CC(=O)Oc1ccc(C(=O)Oc2ccc(C(=O)O)cc2)cc1	98 to 100 °C
NCc1ccc(CN2CCN(c3ncccn3)CC2)cc1	70 to 72 °C
O=C(C1CCCCC1)N1CC(=NO)NC(=NO)C1	> 260 °C
O=C(CNC(=O)c1ccc(F)c([N+](=O)[O-])c1)OCc1ccccc1	84 to 86 °C
CC12C=CC(C)(CC(=O)C1)O2	62 to 63 °C
O=C(Nc1ccc2[nH]c(=O)oc2c1)C(=O)N1CCC(Cc2ccc(F)cc2)CC1	224 to 227 °C
CNC1CN(CCO)CCN1c1ncc(SC)c(Cl)n1 (stereo not given)	120 to 122 °C
O=C(N[C@@H]1CN2CCC1CC2)c1cccc2c1cc1n2CCCC1	163 to 164 °C
COc1ccc(Cn2nc(-n3cnn(Cc4ccc(F)cc4)c3=O)cc2C(=O)NCc2cccnc2)cc1	210 to 211 °C
CS(=O)(=O)c1ccc(-c2cnn(-c3ccc(F)cc3F)c(=O)c2-c2ccc(F)cc2)cc1	245 to 247 °C
COC(=O)c1ccc(C(=O)c2cccnc2)cc1	144 to 146 °C
CN(C)CCOc1ccc2c(c1)C(c1ccccc1)CC(=O)N2 (stereo not given)	133 to 135 °C
ON=C(Cl)c1ccc(Cl)c(Cl)c1	104 to 106 °C
Cc1oc(-c2ccccc2)nc1COc1ccc(Cn2cc(CO)cn2)cc1	100 to 101 °C
CC(CCC(=O)N(Cc1ccccc1)Cc1ccccc1)(c1ccc(O)cc1)c1ccc(O)cc1	203 to 207 °C
CCCCNS(=O)(=O)CC(O)C(O)C(CC1CCCCC1)NC(=O)c1ccnnc1 (stereo not given)	170 to 172 °C
COc1ccc(CCCC(=O)Nc2c(C)c(C)c3c(c2C)C(c2ccc(C)cc2)C(C)(C)O3)cc1 (stereo not given)	166 to 167 °C
CSc1nc(O)nn1C(C)C	90 to 92 °C
CCC(=O)NCc1nc(-c2cc(C(C)(C)C)c(O)c(C(C)(C)C)c2)cs1	82 to 83.5 °C
CCOC(=O)C=CC=CCCC(C)C1CCC2C3CCC4CC(OC(C)=O)CCC4(C)C3CC(OC(C)=O)C12C (stereo not given)	129 to 131 °C
CC(C)C(NC(=O)OCc1ccncc1)C(=O)NC(Cc1ccccc1)C(O)C(O)C(Cc1ccccc1)NC(=O)C(NC(=O)OCc1ccncc1)C(C)C (stereo not given)	190 to 193 °C
CC(=Cc1ccc(C(C)(C)C)cc1)C(=O)NC(C)c1ccc(NS(C)(=O)=O)c(F)c1 (stereo not given)	92 to 94 °C
CCN(CC)C(=O)n1cnc(Sc2c(C)cc(C)c(C)c2OC)n1	138 to 139 °C
COc1ccc(Cn2c(=O)[nH]c3cc([N+](=O)[O-])ccc3c2=O)cc1	244 to 246 °C
